The text below walks through data of US10323078B2, “Isolated peptides and fragments thereof from fibrinogen for use as drugs, particularly in skin inflammatory diseases” (Universite Paris Descartes, priority 2015, dated 2019).

Experiment [1] relates to P. acnes surface proteins. Nature of the experiment: Binding of biotinylated ECM ligands to immobilized P. acnes surface proteins. More on the design: species or system Propionibacterium acnes. As for the experimental part:
FIG. 2: Binding of P. acnes surface protein to purified human fibrinogen. (A) P. acnes surface proteins (0.8 to 50 μg/ml) were immobilized onto a 96-well polystyrene plate and probed with biotinylated fibrinogen (0.1 μg/ml) for 2 h at room temperature. (B) P. acnes surface proteins (25 μg/ml) were immobilized onto a 96-well polystyrene plate and probed with various concentrations of biotinylated fibrinogen ranging from 0.1 to 16 μg/ml for 2 h at room temperature. Bound biotinylated fibrinogen were detected with HRP-streptavidine as described in Materials and Methods.
To characterize the interaction between P. acnes and ligands, we used biotinylated molecules in quantitative and qualitative assays. In a first set of assays, ECM ligands (fibrinogen, collagens I, IV, VI and VIII) were used as labelled proteins with biotin. In a second set of assays, P. acnes surface proteins (total extract and purified Pfg) were biotinylated. For quantitative analysis, unlabeled protein were diluted into 50 mM carbonate-bicarbonate, pH 9.6 buffer to yield a protein concentration ranging from 0.01 to 50 μg/ml, and then immobilized to 96-well polystyrene plates at 4° C. overnight. […] After washing, bound peroxidase was detected using the chromogenic peroxidase substrate ABTS. […] Binding activity was detected by incubating the membranes with 20 ml of PBT containing biotinylated proteins (0.1 μg/ml) for 2 h at room temperature followed by three washes with PBT. Bound biotinylated proteins were detected by incubating the membrane with peroxidase conjugated to streptavidin (0.5 μg/ml in PBT) for 1 h at room temperature. After washing, bound peroxidase activity was detected using 3,3′-diaminobenzidine in the presence of CoCl2 and H2O2 (Harlow and Lane, 1988).
In order to identify P. acnes surface protein recognized by ECM ligands, we used the most commons ECM proteins recognize by skin related bacteria like collagens and fibrinogen. […] To identify surface proteins, P. acnes total heat protein extracts were electrophoretically separated and detected by silver staining (FIG. 1B). […]

Another experiment concerns ThP1 cells. Nature of the experiment: IL-12 production by P. acnes-stimulated ThP1 (ELISA). The class given is cell-based, human. The note with it: P. acnes 6919, set I, bacteria first pretreated, 0.87 to 7 μM. As to the method:
For experiences of stimulation with P. acnes, cells were incubated with the P. acnes suspension adjusted at the appropriate concentration, pre-treated for 1 h at 37° C. or not with fibrinogen recombinant peptides Fg1 and Fg2 at the concentrations 0.87, 1.75, 3.5 or 7 μM for the desired period of time at 37° C. in 5% CO2.
Human IL-1ß, IL-8, IL-12, hBD-2, and TNF-α protein concentration was measured in the supernatants of stimulated cells using various ELISA Set kits (Ready-Set-Go kit from eBioscience for acne experiments, and for psoriasis experiments the Duo set IL-8 kit from R&D Systems and the BD-2 Human Development (hBD-2) from Peprotech) according to the manufacturer's instructions. We used serial dilutions of recombinant human IL-1ß, IL-8, IL-12 and TNF-α for standard curve. The optical density was determined at 450 nm at a wavelength correction of 540 nm.
To assess the efficacy of Fg1 recombinant peptide, the production of O2^∘− and H2O2 by HaCaT cells NHDK, THP-1, MRC5 and HDF stimulated by pretreated P. acnes strains 6919, RON and PIE was measured. The amount of ROS produced was compared to that produced by the stimulated cells with untreated bacteria. Production baseline was obtained by measuring ROS on unstimulated cells. The production of IL-1ß, IL-8, IL-12 and TNF-α was also measured in all conditions cited above. […]

In the case of “human fibrinogen: purified commercial human fibrinogen (Sigma), glycoprotein hexamer of Aα, Bß and γ chains”, the “Binding activity of biotinylated ligand to immobilized P. acnes total surface protein” value in experiment [1] (25 μg/ml of protein immobilized per well, various quantity of biotinylated Fg and Collagen I) is “strong binding activity”. The “P. acnes protein extract concentration at which the binding activity for fibrinogen reaches a plateau” value in experiment [1] (several concentrations of protein extract immobilized, biotinylated fibrinogen 0.1 μg/ml) is “about 6.25 μg/ml”.

B1: MKRMVSWSFHKLKTMKHLLLLLLCVFLVKSQGVNDNEEGFFSARGHRPLDKKREEAPSLRPAPPPISGGGYRARPAKAAATQKKVERKAPDAGGCLHADPDLGVLC (protein)
chain: MKRMVSWSFHKLKTMKHLLLLLLCVFLVKSQGVNDNEEGFFSARGHRPLDKKREEAPSLRPAPPPISGGGRARPAKAAATQKKVERKAPDAGGCLHADPDLGVLCMKRMVSWSFHKLKTMKHLLLLLLCVFLVKSQGVNDNEEGFFSARGHRPLDKKREEAPSLRPAPPPISGGGYRARPAKAAATQKKVERKAPDAGGCLHADPDLGVLC
modifications: GST fusion; fragment Fg1
notes: fragment of Bß chain of human fibrinogen having 106 amino acids; recombinant GST-fused peptide expressed in E. coli
As for B1, in the experiment with ThP1 cells, the “Inhibition of Interleukine 12 (IL-12) production” value is given as “pos”.
